According to PMC10330721, “Chemo-enzymatic synthesis and biological activity evaluation of propenylbenzene derivatives” (Frontiers in Microbiology, 2023):
Converted amounts (≈) assume the structure as drawn. Like-named read-outs stand apart in the source and are kept apart here.

How the values were obtained:
C. albicans strains = test: Fungistatic activity assay, broth microdilution, values given over several strains; type: cell-based, Candida albicans
Protocol: (§1) Fungistatic activity was determined using Candida albicans ATCC 90028 from the American Type Culture Collection (ATCC, Manassas, VA, United States), and clinical isolates, C. albicans 636/20, C. albicans 595/20, and C. albicans 38 obtained from Wrocław Medical University, Wrocław, Poland.
(§2) All compounds were tested for biological activity against C. albicans ATTC 90028, C. albicans 636/20, C. albicans 595/20, and C. albicans 38 using the broth microdilution method. YPD medium (20 g glucose, 20 g Bacto Peptone, 10 g yeast extract, and 1 L of distilled water, pH 6.5) was used for the tests. The compound solutions were prepared in DMSO and diluted in YPD to obtain final concentrations in the range of 10–250 μg/mL. One hundred microlitres of each solution was pipetted into the wells of a 96-well microtiter plate. The inoculum was standardized to 0.5 McFarland standard and then diluted to obtain a final suspension with a cell density of 0.5–2.5 × 10^3 CFU/mL. The inoculum size was 100 μL. The positive control comprised DMSO added in the same concentration as the tested compounds in the inoculum, whereas the negative control consisted of DMSO diluted in the broth without the addition of inoculum. The microtiter plates were incubated in a Biosan PST-60 HL Plate Shaker-Thermostat (Riga, Latvia) at 35°C under shaking at 1,000 rpm for 24 h.

RBCs membrane = test: Fluorescence spectroscopy of the RBCs membrane (DPH probe anisotropy); type: cell-based, human; settings: for Fluorescence anisotropy of the DPH probe: membranes of RBCs, 37 °C; for Change in DPH anisotropy / RBCs membrane fluidity (in words): RBCs, 20, 60 and 100 μM
Protocol: Using the DPH probe, the anisotropy values of cell membranes of RBCs modified with the test compounds were measured. RBCs for this analysis were prepared according to the method described in subsection 2.5.3. Then, the DPH probe was added to RBCs with a haematocrit of 0.2%. The final concentration of the probe in the sample was 1.3 μM. The mixture was incubated protected from light at 37°C for 30 min. Then, the compounds dissolved in ethanol were added. The compounds were tested at 20, 60, and 100 μM concentrations. Samples with compounds and control samples with alcohol of the appropriate concentration were incubated at 37°C for 1 h. Measurements in triplicate were made in quartz cuvettes using a CARY Eclipse fluorimeter (Varian, San Diego, CA, United States) at 37°C. The excitation wavelength for the DPH probe is λexc = 360 nm and the emission wavelength is λem = 426 nm.

MG63 cells = test: Resazurin-based viability assay; type: cell-based, human; settings: for Effect on MG63 proliferation / viability (in words): 24 h, 1, 50 and 200 μg/mL
Protocol: (§3) HepG2 cells were cultured in Dulbecco’s modified Eagle’s Medium - low glucose (Merck) supplemented with 10% foetal bovine serum (FBS) (Merck). Caco-2 cells were cultured in Dulbecco’s modified Eagle’s medium - high glucose (Merck) supplemented with 10% FBS, 2% HEPES buffer (Thermo Fisher Scientific, Warszawa, Poland), 1% Penicillin–Streptomycin-Amphotericin B Solution (100×, Merck), 1% MEM solution (100×, Thermo Fisher Scientific), and 1% Gentamycin Solution (10 mg/mL, Merck). MG-63 cells were cultured in Minimum Essential Medium (Merck) supplemented with 10% FBS. All cells were cultured in an atmosphere of 5% CO2 at 37°C.
The tested compounds were dissolved in ethanol at 10 mg/mL. The concentrations were then adjusted to 1, 50, and 200 μg/mL in culture medium. Four controls were prepared: no ethanol added, and 0.01, 0.5, and 2% EtOH. The cells were treated with the compounds for 24 h. […] The culture medium was replaced with medium containing 10% resazurin dye. The cells were incubated at 37°C in an atmosphere of 5% CO2 for 2 h. Absorbance levels were measured spectrophotometrically (Epoch) at a wavelengths of 600 nm for resazurin and 690 nm as a reference.

C. albicans ATTC18804 = test system: C. albicans ATTC18804; design: method as in Kubo et al., 1993; settings: C. albicans ATTC18804 ref Kubo et al., 1993; cited from earlier work
[1] = cited from earlier work
C. albicans 38 = test: Fungistatic activity assay, broth microdilution; type: cell-based, Candida albicans
Protocol: as §1, §2

[2] = Haemolytic activity assay; type: cell-based; settings: human red blood cells (RBCs) from healthy donors, 37°C, read-out: Percentage of haemolysis
Protocol: This test is based on comparison of the cytotoxicity of all tested compounds in human red blood cells (RBCs) with that in a control group. RBCs for this method were obtained from a blood center from examined and healthy donors. The compounds were tested at 10, 20, 40, 60, 80, and 100 μM concentrations. The control sample contained only ethanol in the same volume as the test samples. […] The samples were incubated at 37°C for 1 h. Then, the absorbance at 540 nm was measured using a UV–Vis spectrophotometer (Specord 40, Analytik Jena, Jena, Germany). The haemolytic activity of the compounds was determined as the ratio of the absorbance of haemoglobin in the test samples to that in completely haemolyzed cells multiplied by 100%.

Caco-2 cells = test: Resazurin-based viability assay; type: cell-based, human; settings: 24 h, 50 μg/mL
Protocol: as §3, with “The human HepG2 and Caco-2 cell lines were obtained from the American Type Culture Collection (HB-8065™ and HTB-37™) and the MG-63 cell line was obtained from the European Collection of Authenticated Cell Cultures (Merck, Poznań, Poland). HepG2” for “HepG2”
(§4) HepG2, Caco-2, and […] were seeded in 96-well plates at 20,000 cells per well, and MG-63 cells at 10,000 cells per well, as described previously ([Marycz et al., 2012]; [Kornicka et al., 2017]). The tested compounds were dissolved in ethanol at 10 mg/mL. The concentrations were then adjusted to 1, 50, and 200 μg/mL in culture medium. Four controls were prepared: no ethanol added, and 0.01, 0.5, and 2% EtOH. The cells were treated with the compounds for 24 h. Then, cell viability was evaluated using the resazurin-based assay kit (TOX8), as described previously ([Grzesiak et al., 2011]; [Marycz et al., 2018]). The culture medium was replaced with medium containing 10% resazurin dye. The cells were incubated at 37°C in an atmosphere of 5% CO2 for 2 h. Absorbance levels were measured spectrophotometrically (Epoch) at a wavelengths of 600 nm for resazurin and 690 nm as a reference.

HepG2 cells = test: Resazurin-based viability assay; type: cell-based, human; settings: for Effect on HepG2 proliferation / viability (in words): 24 h, 1, 50 and 200 μg/mL
Protocol: as §3, with “The human HepG2 and Caco-2 cell lines were obtained from the American Type Culture Collection (HB-8065™ and HTB-37™) and the MG-63 cell line was obtained from the European Collection of Authenticated Cell Cultures (Merck, Poznań, Poland). HepG2” for “HepG2”
as §4

[3] = test system: human hepatocellular carcinoma HepG2 cells; design: method as in Yoo et al., 2005; Song et al., 2014, 2020; settings: ref Yoo et al., 2005; Song et al., 2014, 2020; cited from earlier work
[4] = test system: human colon carcinoma Caco-2 cell line; settings: ref Lea et al., 2016; Padhy et al., 2022; cited from earlier work
C. albicans ATTC 90028 = test: Fungistatic activity assay, broth microdilution; type: cell-based; settings: Candida albicans, ATTC90028, 24 h
Protocol: as §1, §2

C. albicans 595/20 = test: Fungistatic activity assay, broth microdilution; type: cell-based; settings: Candida albicans, 595/20, 24 h
Protocol: as §1, §2

[5] = Free-radical scavenging assay (DPPH test); type: biochemical; settings: DPPH 190 μM in methanol, 1 h, 25°C, absorbance 517 nm
Protocol: The antiradical activity of all compounds was tested using the 2,2-diphenyl-1-picrylhydrazyl (DPPH) test according to a previously described method ([Herald et al., 2012]; [Dudek et al., 2022]). One litre of a fresh solution of 190 μM DPPH in pure methanol was prepared in a dark glass bottle. The solution was kept protected from light and used within a week. The tested compounds and ascorbic acid as a positive control were prepared at concentrations in the range of 5–100 μg/mL. Two hundred microlitres of the test compound dilutions was added to each well of a 96-well microtiter plate. Then, […] of a 190 μM solution of DPPH in methanol was added. DPPH was also added to the negative control, in which 200 μL of methanol was added instead of the test compounds. All samples were tested at least in triplicate. The microtiter plates were incubated in the Biosan PST-60 HL thermoshaker at 25°C under shaking at 1,000 rpm for 1 h. […] EC50 values were calculated using Quest Graph™ EC50 Calculator (AAT Bioquest, Inc.).

| Compound | Fluorescence anisotropy of the DPH probe (RBCs membrane; 20 µM) | Fluorescence anisotropy of the DPH probe (RBCs membrane; 60 µM) | Fluorescence anisotropy of the DPH probe (RBCs membrane; 100 µM) | Effect on MG63 proliferation / viability (in words) (MG63 cells) | hemolysis at 1 h, 10 µM [2] | hemolysis at 1 h, 20 µM [2] | hemolysis at 1 h, 40 µM [2] | hemolysis at 1 h, 60 µM [2] | hemolysis at 1 h, 80 µM [2] | hemolysis at 1 h, 100 µM [2] | other results |
| --- | --- | --- | --- | --- | --- | --- | --- | --- | --- | --- | --- |
| isoeugenol [5a] | 0.259 ± 0.009 | 0.272 ± 0.085 | 0.256 ± 0.023 | promoted MGC63 proliferation |  |  |  |  |  |  | MIC50 (over all tested strains) (C. albicans strains; C. albicans 636/20, 595/20, 38 and ATTC90028): 52 to 88 µg/mL; MIC (C. albicans ATTC18804): 400 µg/mL; antioxidant activity ([1]; ref Siva et al. (2019)): 86% |
| COc1ccc(C(=O)C(C)O)cc1 (centres unmarked) [3c, 2-hydroxy-1-(4-methoxyphenyl)propan-1-one] | 0.239 ± 0.006 | 0.249 ± 0.007 | 0.244 ± 0.003 | promoted MGC63 proliferation | 1.83 ± 0.355% | 1.65 ± 0.509% | 1.73 ± 0.174% | 2.33 ± 0.436% | 2.15 ± 0.161% | 1.53 ± 0.134% | MIC50 (C. albicans 38; Candida albicans, C. albicans 38, 24 h, 35°C, tested 10–250 μg/mL, read-out: MIC50): 61 µg/mL (≈ 339 µM); Change in DPH anisotropy / RBCs membrane fluidity (in words) (RBCs membrane): a decrease in anisotropy; Effect on Caco-2 proliferative activity (in words) (Caco-2 cells): induced the proliferative activity; Effect on HepG2 proliferative activity (in words) (HepG2 cells; 24 h, 50 μg/mL): induced the proliferative activity; Effect on MG63 proliferative activity / viability (in words) (MG63 cells; 24 h, 50 μg/mL): induced the proliferative activity |
| C=CCc1ccc(O)c(OC)c1 [eugenol] |  |  |  |  |  |  |  |  |  |  | Effect on growth of HepG2 cells (in words) [3]: inhibited the growth; Apoptosis in Caco-2 cell line (in words) [4]: induced apoptosis |
| CC(O)C(=O)c1ccccc1 (centres unmarked) [2c, 2-hydroxy-1-phenylpropan-1-one] | 0.236 ± 0.026 | 0.240 ± 0.019 | 0.238 ± 0.002 | promoted MGC63 proliferation | 1.16 ± 0.027% | 1.86 ± 0.697% | 1.42 ± 0.55% | 1.74 ± 0.59% | 1.94 ± 0.154% | 2.46 ± 0.322% | MIC50 (C. albicans ATTC 90028): > 250 µg/mL; MIC50 (C. albicans 38; Candida albicans, 38, 24 h): > 250 µg/mL; Change in DPH anisotropy / RBCs membrane fluidity (in words) (RBCs membrane): a decrease in anisotropy |
| C/C=C/c1ccc2c(c1)OCO2 [1a, isosafrole] | 0.262 ± 0.016 | 0.264 ± 0.030 | 0.237 ± 0.041 | promoted MGC63 proliferation | 2.41 ± 0.481% | 1.54 ± 0.202% | 2.18 ± 0.153% | 2.4 ± 0.446% | 2.585 ± 0.014% | 2.55 ± 0.007% | MIC50 (C. albicans 595/20): 65 µg/mL (≈ 401 µM); MIC50 (C. albicans strains; Candida albicans, read-out: MIC50 (over all tested strains)): < 100 µg/mL; Effect on HepG2 proliferation / viability (in words) (HepG2 cells): more strongly significantly suppressed the viability; MIC (C. albicans ATTC18804): 100 µg/mL (≈ 617 µM); Apoptosis in Caco-2 cell line (in words) [4]: induced apoptosis |
| C=CCc1ccc2c(c1)OCO2 [safrole] |  |  |  |  |  |  |  |  |  |  | IC50 antioxidant activity ([1]; ref Eid and Hawash (2021)): 50.28 µg/mL (≈ 310 µM); Effect on growth of HepG2 cells (in words) [3]: inhibited the growth |
| O=C1O[C@H]([C@@H](O)CO)C(O)=C1O [ascorbic acid, reference compound] |  |  |  |  |  |  |  |  |  |  | EC50 antiradical activity [5]: 15.21 µg/mL (≈ 86.4 µM) |
| CC=Cc1ccccc1 [2a, prop-1-en-1-yl benzene] | 0.262 ± 0.020 | 0.268 ± 0.023 | 0.267± 0.006 | promoted MGC63 proliferation |  |  |  |  |  |  | MIC50 (C. albicans ATTC 90028): > 250 µg/mL; MIC50 (C. albicans 38; Candida albicans, 38, 24 h): > 250 µg/mL; Effect on HepG2 proliferation / viability (in words) (HepG2 cells): more strongly significantly suppressed the viability |
